# Publication PMC10466336, “Chemical Probe for Imaging of Polo-like Kinase 4 and Centrioles” (JACS Au, 2023)
# Experiments:
# [1] = target: T1, GFP-Plk4(K41M) in transfected HeLa cells (Homo sapiens, UniProt O00444, K41M); experiment: Live-cell confocal/STED imaging of overexpressed Plk4; format: cell-based; conditions: 500 nM, live-cell STED, HeLa GFP-Plk4(K41M), N = 5
# T1 construct: expressed in transfected cells; host or cells: HeLa
# T1 sequence (O00444 1-970 K41M): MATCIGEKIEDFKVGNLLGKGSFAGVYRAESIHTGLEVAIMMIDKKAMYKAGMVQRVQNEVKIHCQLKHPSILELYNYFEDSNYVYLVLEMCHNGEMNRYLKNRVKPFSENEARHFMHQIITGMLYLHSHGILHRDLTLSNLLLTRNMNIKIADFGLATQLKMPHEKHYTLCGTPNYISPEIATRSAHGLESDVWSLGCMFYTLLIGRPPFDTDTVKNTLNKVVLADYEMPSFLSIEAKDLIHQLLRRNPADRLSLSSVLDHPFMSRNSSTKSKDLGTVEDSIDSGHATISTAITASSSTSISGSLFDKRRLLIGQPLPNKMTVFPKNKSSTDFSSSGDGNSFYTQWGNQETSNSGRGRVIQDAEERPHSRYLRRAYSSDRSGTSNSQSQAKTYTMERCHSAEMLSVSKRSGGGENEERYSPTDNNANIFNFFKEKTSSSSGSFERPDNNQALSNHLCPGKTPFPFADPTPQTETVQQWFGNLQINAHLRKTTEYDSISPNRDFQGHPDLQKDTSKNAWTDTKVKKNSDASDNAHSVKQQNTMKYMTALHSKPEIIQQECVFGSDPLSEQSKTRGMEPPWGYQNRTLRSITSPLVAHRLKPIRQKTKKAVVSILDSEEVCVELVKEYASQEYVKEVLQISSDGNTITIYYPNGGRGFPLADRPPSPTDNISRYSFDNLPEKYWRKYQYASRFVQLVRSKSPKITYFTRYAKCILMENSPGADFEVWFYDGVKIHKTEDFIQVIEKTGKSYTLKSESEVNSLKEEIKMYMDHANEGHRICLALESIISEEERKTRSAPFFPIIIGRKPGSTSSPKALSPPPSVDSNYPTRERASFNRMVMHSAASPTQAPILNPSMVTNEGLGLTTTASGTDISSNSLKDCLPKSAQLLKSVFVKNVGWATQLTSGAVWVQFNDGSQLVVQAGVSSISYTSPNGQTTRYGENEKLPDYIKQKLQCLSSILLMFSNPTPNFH
# HeLa Centrin1-GFP cells = experiment: Plk4 foci scoring at different time points of Cen-TCO incubation; format: cell-based, human; conditions: 500 nM
# Experimental: We conjugated trans-cyclooctene to the previously obtained compound (4) to obtain Cen-TCO (3) using the synthetic route outlined in Scheme S2. The resulting Cen-TCO (3) reacted with an appropriate tetrazine, such as SiR650-TetH (4a) (Figure S4A). The reaction was followed by LC-MS, and the data confirmed quantitative conversion of Cen-TCO (3) to the appropriate cycloaddition product Cen-Click-SiR650 (Figure S4A, D). […] To assess the phenotype caused by Cen-TCO (3), we incubated HeLa cells expressing Centrin1-GFP with different concentrations of Cen-TCO (3) for 24 h, followed by scoring of Centrin1-GFP foci numbers (Figure S5B). […] Next, we tested Cen-TCO (3) in combination with different tetrazine partners to determine the optimal combination for our bio-orthogonal strategy. We used four different tetrazines to visualize overexpressed GFP-Plk4(K41M) in HeLa cells following 1 h of incubation with Cen-TCO (500 nM) (Figure S6). […] Furthermore, the high fluorogenicity of HD653 makes it particularly well suited for live cell imaging.[33] Therefore, the combination of Cen-TCO (3) and HD653 (5) was further used for live cell imaging of endogenous Plk4 (Figure 4A). HeLa cells expressing Centrin1-GFP were incubated with 500 nM Cen-TCO (3) for 1 h, followed by a 15 min incubation with 500 nM HD653 (5) and imaged with a confocal microscope without prior washing. Despite the high unspecific background signal, a clear focus could be detected at centrioles (Figure 4B). […] The fwhm of the circular signal in this case was 368 ± 26 (N = 6) (Figure S7B), which corresponds to the size measured with overexpressed GFP-Plk4(K41M) (see Figure 3D), and approximately that of the torus region surrounding the centriole.[40] […] To assess this and test whether early time points after Cen-TCO addition may be immune to this problem, HeLa Centrin1-GFP cells were incubated with Cen-TCO (3) and fixed at different time points thereafter, after which the number of centriolar Plk4 foci per cell was quantified (Figure S8B–F). […]
SMILES,diameter of the circular SiR595 signal [1] [nm],effect on Plk4 foci numbers (HeLa Centrin1-GFP cells; after 1 h of incubation),effect on Plk4 foci numbers around centrioles (HeLa Centrin1-GFP cells; after 4 h),effect on Plk4 foci numbers (HeLa Centrin1-GFP cells; up to 4 h of incubation)
COc1c(Nc2cc(C)[nH]n2)nc(Sc2ccc(S(=O)(=O)Cc3cccc([N+](=O)[O-])c3F)cc2F)nc1N1CCC(CC(=O)NCCNC(=O)c2ccc(C(=O)O)c(C3=C4C=CC(=N)C=C4[Si](C)(C)c4cc(N)ccc43)c2)CC1 [2d],373 ± 36,–,–,–
COc1c(Nc2cc(C)[nH]n2)nc(Sc2ccc(S(=O)(=O)Cc3cccc([N+](=O)[O-])c3F)cc2F)nc1N1CCC(CC(=O)NCCNC(=O)OC2CC/C=C/CCC2)CC1 (stereo not shown) [compound 3],–,no perturbation,significant increase,only minor perturbations
